Experimental data as given in patent US12390441B2, “Immunomodulating o-het/aryl azalides” (Zoetis Services LLC, priority 2020, dated 2025).
Like-named read-outs stand apart in the source and are kept apart here. Each block holds one molecule with its values, some of them ahead of it.

What was measured:
P. multocida 46572 = experiment: In vivo mouse lung infection challenge model (murine); design: species or system CD-1 female mice; conditions: 46572, sc, 20 mg/kg, 240 h
Procedure: The challenge organism was P. multocida 46572. Target challenge concentration was 5×10^2 CFU/mouse. Isolated colonies from overnight growth (37° C. with 5% CO2) on trypticase soy agar (TSA II) blood plates were transferred to room temperature Brain Heart Infusion Broth (BHIB). The broth culture was incubated 3.5-4 hours to approximately mid-log phase of growth, as measured by forward light scatter at 600 nm (OD600, 0.200). The culture was centrifuged to collect the bacterial pellet. The pellet was re-suspended in BHIB and adjusted to provide an approximate concentration of 2.7 log^10 colony forming units (CFU) in 0.04 mL at the highest concentration. The challenge inoculum concentration was confirmed by serial dilutions of the inoculum for CFU enumeration. On Day −5, CD-1 female mice were received. Mice were given standard rodent diet and water ad libitum. On Day 0, bacterial inoculum (0.04 mL) was administered to each mouse (n=36) intranasally. Compounds of the invention were dosed at 20 mg/kg (0.1 mL) in a buffered (˜pH 5.4) propylene glycol, monothioglycerol and water solution by subcutaneous injection. Animals were observed from Days 1-10. The study was terminated on Day 10. In addition, some treatment groups were sampled at 6, 24, and 48 hours post bacterial challenge for RNA sequence analysis of lung tissue.
The murine efficacy model (P. multocida challenge) was optimized, and the treatment group size was powered to be able to observe statistically significant improvement of survival to expected ranges for immunomodulatory compounds. The experimental design was a randomized complete block design. Mice were individually identified and treatment groups comingled within a cage, with every treatment group equally represented across cages. Mortality was the primary variable. Mortality data was analyzed using a generalized mixed model with fixed effect of treatment and random effect of block. Survival time was also analyzed using the SAS PHREG (survival analysis) procedure to examine whether there were significant differences between treatment groups and the control group. Numerous compounds of the invention and M9 (positive control) were tested in this model at a dose of 20 mg/kg (Table 3). Typical percent survival for no treatment control is in the range of 0-20% based on study to study variation in challenge inoculum and rate of infection. […] Mouse survival for M9 was about 90-100%, further supporting its residual antibacterial properties against the bacterial strain. Harmonized survival accounts for % survival relative to vehicle (“−” control) and M9 (“+” control)) survival data (Table 3).

M. haemolytica = experiment: In-vitro MIC model (CLSI broth micro-dilution); format: cell-based, Mannheimia haemolytica; conditions: for MIC: Mannheimia haemolytica, read-out: Comparative MIC
S. aureus (29213 ATCC) = experiment: In-vitro MIC model (CLSI broth micro-dilution); format: cell-based; conditions: for MIC: Staphylococcus aureus, read-out: Comparative MIC
P. multocida [1] = experiment: In-vitro MIC model (CLSI broth micro-dilution); format: cell-based, Pasteurella multocida; conditions: for MIC: Pasteurella multocida, read-out: Comparative MIC
P. multocida [2] = experiment: Murine P. multocida intranasal challenge study, survival; format: in vivo, mice; conditions: 5×10^3 CFU/mouse; subcutaneous 18 hours after challenge; tulathromycin 16 mg/kg, M9 32 mg/kg, ceftiofur 9 mg/kg
IL-6 [3] = experiment: Plasma IL-6 biomarker in bovine M. haemolytica challenge
TNF-α = experiment: Whole blood assay, LPS stimulation, MSD cytokine detection; format: cell-based; conditions: fresh whole bovine blood
IL-1β = experiment: as above; format: cell-based, bovine; conditions: fresh whole bovine blood, LPS stimulation; drug concentration giving overstimulation (OS) of IL-1β
[4] = tested on: M. haemolytica (OSU-012103-BHI); conditions: inhaled or nasal
IL-6 [5] = experiment: Whole blood assay, LPS stimulation, MSD cytokine detection; format: cell-based; conditions: Bos taurus, fresh whole bovine blood
H. somni (A700025K) = experiment: In-vitro MIC model (CLSI broth micro-dilution); format: cell-based, Histophilus somni
[6] = M. haemolytica 46571, bovine efficacy challenge strain
[7] = P. multocida 46572, murine efficacy challenge strain

Compound: CC[C@H]1OC(=O)[C@H](C)[C@@H](O)[C@H](C)[C@@H](O[C@@H]2O[C@H](C)C[C@H](NC)[C@H]2Oc2ccc(OC)cc2)[C@](C)(O)C[C@@H](C)CN[C@H](C)[C@@H](O)[C@]1(C)O [Example B-6, (2R,3S,4R,5R,8R,10R,11R,12S,13S,14R)-2-ethyl-3,4,10,13-tetrahydroxy-11-(((2S,3R,4S,6R)-3-(4-methoxyphenoxy)-6-methyl-4-(methylamino)tetrahydro-2H-pyran-2-yl)oxy)-3,5,8,10,12,14-hexamethyl-1-oxa-6-azacyclopentadecan-15-one]
% Survival (P. multocida 46572): 1%
MIC (M. haemolytica; M. haemolytica 12726): > 64 µg/mL
MIC (M. haemolytica; M. haemolytica 33396): > 64 µg/mL
MIC (M. haemolytica; [6]): > 64 µg/mL
MIC (S. aureus (29213 ATCC)): > 64 µg/mL
MIC (P. multocida [1]; P. multocida 43137): > 64 µg/mL
MIC (P. multocida [1]; [7]): > 64 µg/mL

Compound: CO/N=C(\C(=O)N[C@@H]1C(=O)N2C(C(=O)O)=C(CSC(=O)c3ccco3)CS[C@H]12)c1csc(N)n1 [ceftiofur]
Survival at Day 7 (P. multocida [2]): ~90%

Compound: CCCNC[C@]1(O)[C@H](C)O[C@@H](O[C@H]2[C@H](C)[C@@H](O[C@@H]3O[C@H](C)C[C@H](N(C)C)[C@H]3O)[C@](C)(O)C[C@@H](C)CN[C@H](C)[C@@H](O)[C@](C)(O)[C@@H](CC)OC(=O)[C@@H]2C)C[C@@]1(C)OC [tulathromycin, (2R,3S,4R,5R,8R,10R,11R,12S,13S,14R)-11-(((2S,3R,4S,6R)-4-(dimethylamino)-3-hydroxy-6-methyltetrahydro-2H-pyran-2-yl)oxy)-2-ethyl-3,4,10-trihydroxy-13-(((2R,4R,5S,6S)-5-hydroxy-4-methoxy-4,6-dimethyl-5-((propylamino)methyl)tetrahydro-2H-pyran-2-yl)oxy)-3,5,8,10,12,14-hexamethyl-1-oxa-6-azacyclopentadecan-15-one]
Survival at Day 7 (P. multocida [2]): about 80%
IL-6 levels (IL-6 [3]): significantly reduced

IC50 (TNF-α): 30 µM
Comparative MIC (S. aureus (29213 ATCC)): >64 µg/mL
Comparative MIC (P. multocida [1]; P. multocida 43137): >64 µg/mL
Comparative MIC (P. multocida [1]; [7]): >64 µg/mL
Compound: CCCNC[C@]1(O)[C@H](C)O[C@@H](O[C@H]2[C@H](C)[C@@H](O[C@@H]3O[C@H](C)C[C@H](NC)[C@H]3Oc3cccc(OCC)c3)[C@](C)(O)C[C@@H](C)CN[C@H](C)[C@@H](O)[C@](C)(O)[C@@H](CC)OC(=O)[C@@H]2C)C[C@@]1(C)OC [Example E-13]
Comparative MIC (M. haemolytica; M. haemolytica 12726): >64 µg/mL
Comparative MIC (M. haemolytica; M. haemolytica 33396): >64 µg/mL
Comparative MIC (M. haemolytica; [6]): >64 µg/mL
IL-1ß OS of LPS (IL-1β): 40 µM

Compound: CCCNC[C@]1(O)[C@H](C)O[C@@H](O[C@H]2[C@H](C)[C@@H](O[C@@H]3O[C@H](C)C[C@H](NC)[C@H]3Oc3ccccc3)[C@](C)(O)C[C@@H](C)CN[C@H](C)[C@@H](O)[C@](C)(O)[C@@H](CC)OC(=O)[C@@H]2C)C[C@@]1(C)OC [Example E-112, (2R,3S,4R,5R,8R,10R,11R,12S,13S,14R)-2-ethyl-3,4,10-trihydroxy-13-(((2R,4R,5S,6S)-5-hydroxy-4-methoxy-4,6-dimethyl-5-((propylamino)methyl)tetrahydro-2H-pyran-2-yl)oxy)-3,5,8,10,12,14-hexamethyl-11-(((2S,3R,4S,6R)-6-methyl-4-(methylamino)-3-phenoxytetrahydro-2H-pyran-2-yl)oxy)-1-oxa-6-azacyclopentadecan-15-one]
IC50 (TNF-α; Bos taurus): 10 µM
% Survival (P. multocida 46572): 53%
MIC (M. haemolytica; M. haemolytica 12726): > 64 µg/mL
MIC (M. haemolytica; M. haemolytica 33396): > 64 µg/mL
MIC (M. haemolytica; [6]): > 64 µg/mL
IL-1ß OS of LPS (IL-1β): 80 µM
MIC (S. aureus (29213 ATCC)): > 64 µg/mL
MIC (P. multocida [1]; P. multocida 43137): > 64 µg/mL
MIC (P. multocida [1]; [7]): > 64 µg/mL
lung lesion scores ([4]; 0.01 mg/kg): 39
lung lesion scores ([4]; 0.05 mg/kg): 41
lung lesion scores ([4]; 0.1 mg/kg): 27
IC50 (IL-6 [5]): 40 µM

MIC, P. multocida strains (P. multocida [1]; screening panel strains): 1 to 2 µg/mL
MIC, H. somni strains (H. somni (A700025K)): 0.25 to 8 µg/mL
Compound: CCCN1C[C@H](C)[C@@H](O)[C@](C)(O)[C@@H](CC)OC(=O)[C@H](C)[C@@H](O[C@H]2C[C@@](C)(OC)[C@@H](O)[C@H](C)O2)[C@H](C)[C@@H](O[C@@H]2O[C@H](C)C[C@H](N(C)C)[C@H]2O)[C@](C)(O)C[C@H]1C [gamithromycin, reference compound]
MIC, M. haemolytica strains (M. haemolytica; screening panel strains): 0.5 to 1 µg/mL

Comparative MIC (S. aureus (29213 ATCC)): >64 µg/mL
Comparative MIC (P. multocida [1]; P. multocida 43137): >64 µg/mL
Comparative MIC (P. multocida [1]; [7]): >64 µg/mL
Compound: CC[C@H]1OC(=O)[C@H](C)[C@@H](O)[C@H](C)[C@@H](O[C@@H]2O[C@H](C)C[C@H](N(C)C(=O)N(C)C3CC3)[C@H]2Oc2ccccc2)[C@](C)(O)C[C@@H](C)CN(C)[C@H](C)[C@@H](O)[C@]1(C)O [Example C-27]
Comparative MIC (M. haemolytica; M. haemolytica 12726): >64 µg/mL
Comparative MIC (M. haemolytica; M. haemolytica 33396): >64 µg/mL
Comparative MIC (M. haemolytica; [6]): >64 µg/mL
